Patent publication US9006261B2, “Fluorescent perylene derivatives for direct detection of heparin” (priority 2009, dated 2015)

Experiment: Fluorescence response to Dalteparin sodium in buffer, serum and plasma
Type: binding
Conditions: fluorescence of perylene diimide derivative/LMWH mixture
Experimental: The response of the perylene diimide derivative to heparin was additionally studied using Dalteparin sodium (0.4-0.8 IU/mL), a clinically important LMWH preparation with a mean molecular weight of 5000 g/mol. Fluorescence was recorded with a portable fluorometer, equipped with a 485 nm excitation filter and a 665 nm cutoff emission filter. The latter filter offered good signal-to-background ratio since serum/plasma autofluorescence is very low above 665 nm. The fluorescence of the perylene diimide derivative decreased approximately linearly (FIG. 4c) with increasing LMWH concentration, in buffered solution. The binding ration was calculated to be one perylene diimide derivative/2 disaccharides of heparin. Solutions containing 20 vol % serum or plasma required an only slightly larger (about 1.1-fold) LMWH concentration to trigger the same relative fluorescence decrease as observed in buffered solution.

- reversibility of LMWH binding on addition of protamine: fluorescence was restored
Substance: protamine
